Read-outs that look alike come from different tables or passages of the source.
Experiments:
MOLT-4 = tested on: MOLT-4
Protocol: (§1) The screening assay is performed on 96-well microtitre plates. Relatively high initial inoculation densities are used, in order to permit measurement of “time-zero” values and to enhance the screen's ability to detect and provide some differentiation between antiproliferative and cytotoxic response parameters. […] The inoculated microtitre plates are pre-incubated for 24 hours at 37θC prior to drug additions. The five drug dilutions tested routinely range from 10^−4 to 10^−8 molar. Higher or lower concentration ranges may be selected on a nonroutine basis if appropriate solubility and/or prior biological information or other screening data so dictate. Duplicate wells are prepared for all concentrations, (concentration is often denoted by placing brackets around a number); “time-zero” and “no drug” controls are also provided for each test. The minimum amount of compound required for a one-time evaluation in the routine screen can be calculated from the knowledge that each test requires a total of approximately 40 ml (0.04 liter) of cell culture medium containing the highest desired drug concentration. Thus, the amount (grams) of sample required (assuming an upper test concentration limit of 10^−4 M) is: molecular weight of compound×[…]. After a 48 hour incubation (37θC) with the test compound, the cells are fixed in situ to the bottoms of the microtitre wells by addition of 50 ul of either 50% trichloroacetic acid (for adherent cell lines) or 80% trichloroacetic acid (for settled cell suspension lines), followed by incubation for 60 minutes at 4θC. The cellular protein in each well is assayed using a sulforhodamine B (SRB) stain procedure. Briefly, after discarding the supernatants, the microtitre plates are washed 5 times with deionized water and air-dried. One hundred microliters of SRB solution (0.4% w/v in 1% acetic acid) is added to each microtitre well and incubated for 10 minutes at room temperature. Unbound SRB is removed by washing 5 times with 1 % acetic acid. The plates are air-dried, the bound stain is solubilized with Tris buffer, and the optical densities read at 515 nm. SRB is a bright pink anionic dye which, in dilute acetic acid, binds electrostatically to the basic amino acids of TCA-fixed cells. Cryopreserved master stocks of all the lines are maintained, and cultures used for screening are replaced from the master stock after no more than twenty passages in the screening laboratory. The cell line panel consists of 60 lines, organized into nine, disease-related subpanels including leukemia, non-small-cell lung cancer, colon, CNS, melanoma, ovarian, renal, prostate and breast cancers.
(§2) The response parameters G150 and LC50 are interpolated values representing the concentrations at which the percentage growth (PG) is +50 and −50, respectively:
(§3) GI50 is the concentration for which the PG=+50. At this value the increase from time tzero, in the number or mass of cells in the test well is only 50% as much as the corresponding increase in the control well during this period of the experiment, see Table II. A drug effect of this intensity is interpreted as primary growth inhibition.
(§4) TGI is the concentration for which PG=0. At this value the number or mass of cells in the well at the end of the experiment equals the number or mass of cells in the well at time tzero, see Table III. A drug effect of this intensity is regarded as cytostasis.
(§5) LC50 is the concentration for which the PG=−50. At this value, the number or mass of cells in the test well at the end of the experiment is half that at time tzero, see Table IV. This is interpreted as cytotoxicity.

SR = experiment: NCI 60 cell line screen (SRB), Leukemia; type: cell-based
HOP-62 = experiment: NCI 60 cell line screen (SRB), Non-Small Cell Lung Cancer; type: cell-based
NCI-H522 = experiment: as above; type: cell-based
COLO 205 = experiment: NCI 60 cell line screen (SRB), Colon Cancer; type: cell-based
HCT-15 = experiment: NCI 60 cell line screen (SRB), Colon Cancer; type: cell-based; conditions: PG=0
SNB-75 = experiment: NCI 60 cell line screen (SRB), CNS Cancer; type: cell-based; conditions: PG=0
OVCAR-8 = experiment: NCI 60 cell line screen (SRB), Ovarian Cancer; type: cell-based
786-0 = experiment: NCI 60 cell line screen (SRB), Renal Cancer; type: cell-based
RXF 393 = experiment: NCI 60 cell line screen (SRB), Renal Cancer; type: cell-based
SN12C = experiment: NCI 60 cell line screen (SRB), Renal Cancer; type: cell-based
PC-3 = experiment: NCI 60 cell line screen (SRB), Prostate Cancer; type: cell-based; conditions: PG=0
MCF7 = experiment: NCI 60 cell line screen (SRB), Breast Cancer; type: cell-based
MDA-MB-435 = experiment: NCI 60 cell line screen (SRB), Breast Cancer; type: cell-based
MDA-N = experiment: NCI 60 cell line screen (SRB), Breast Cancer; type: cell-based
BT-549 = experiment: NCI 60 cell line screen (SRB), Breast Cancer; type: cell-based
60 cell line panel = experiment: NCI 60 cell line screen (SRB), whole panel; type: cell-based; conditions: panel summary
Protocol: as §1, §2, §3, §4, §5

`C[C@@H]1CC[C@H]2[C@@H](C)C(=O)O[C@@H]3O[C@]4(C)CC[C@@H]1[C@]32OO4` [Artemisinin, artemisinin] was tested, and the Log10GI50 (MOLT-4; MOLT-4, PG=+50) was −4.73 log10M, the Log10TGI (MOLT-4; MOLT−4, PG=0) was −4.00 log10M and the Log10GI50 (MOLT-4; Table IV (LC50, PG=−50), MOLT−4) was greater than −4.00 log10M. The “drug concentration for cytotoxicity (percentage growth −50)” value (MOLT-4; human, 48 h) was “greater than 10^−4 M”, the Log10TGI (SR; PG=0) was greater than −4.00 log10M and the Log10GI50 (SR; PG=+50) was greater than −4.00 log10M. For the same compound, the Log10GI50 (SR; Table IV (LC50, PG=−50)) was greater than −4.00 log10M, the Log10TGI (HOP-62; PG=0) was greater than −4.00 log10M and the Log10GI50 (HOP-62; PG=+50) was greater than −4.00 log10M. The Log10GI50 (HOP-62; Table IV (LC50, PG=−50)) was greater than −4.00 log10M, the Log10TGI (NCI-H522; PG=0) was greater than −4.00 log10M and the Log10GI50 (NCI-H522; PG=+50) was greater than −4.00 log10M. The Log10GI50 (NCI-H522; Table IV (LC50, PG=−50)) was greater than −4.00 log10M, the Log10TGI (COLO 205; PG=0) was greater than −4.00 log10M and the Log10GI50 (COLO 205; PG=+50) was greater than −4.00 log10M. For the same compound, the Log10GI50 (COLO 205; Table IV (LC50, PG=−50)) was greater than −4.00 log10M, the Log10TGI (HCT-15) was greater than −4.00 log10M and the Log10TGI (SNB-75) was greater than −4.00 log10M. The Log10TGI (OVCAR-8; PG=0) was greater than −4.00 log10M, the Log10GI50 (OVCAR-8; PG=+50) was greater than −4.00 log10M and the Log10GI50 (OVCAR-8; Table IV (LC50, PG=−50)) was greater than −4.00 log10M. For the same compound, the Log10TGI (786-0; PG=0) was greater than −4.00 log10M, the Log10GI50 (786-0; PG=+50) was greater than −4.00 log10M and the Log10GI50 (786-0; Table IV (LC50, PG=−50)) was greater than −4.00 log10M. The Log10TGI (RXF 393; PG=0) was greater than −4.00 log10M, the Log10GI50 (RXF 393; PG=+50) was −4.08 log10M and the Log10GI50 (RXF 393; Table IV (LC50, PG=−50)) was greater than −4.00 log10M. The Log10TGI (SN12C; SN12C, PG=0) was greater than −4.00 log10M, the Log10GI50 (SN12C; SNI2C, PG=+50) was −4.21 log10M and the Log10GI50 (SN12C; Table IV (LC50, PG=−50), SN12C) was greater than −4.00 log10M. It also gave a Log10TGI (PC-3) of −4.00 log10M, a Log10TGI (MCF7; PG=0) greater than −4.00 log10M and a Log10GI50 (MCF7; PG=+50) greater than −4.00 log10M. For the same compound, the Log10GI50 (MCF7; Table IV (LC50, PG=−50)) was greater than −4.00 log10M, the Log10TGI (MDA-MB-435; MDA-MB-435, PG=0) was greater than −4.00 log10M and the Log10GI50 (MDA-MB-435; MDA-MB−435, PG=+50) was greater than −4.00 log10M. The Log10GI50 (MDA-MB-435; Table IV (LC50, PG=−50), MDA-MB-435) was greater than −4.00 log10M, the Log10TGI (MDA-N; PG=0) was −4.00 log10M and the Log10GI50 (MDA-N; PG=+50) was −4.06 log10M. It also gave a Log10GI50 (MDA-N; Table IV (LC50, PG=−50)) greater than −4.00 log10M, a Log10TGI (BT-549; PG=0) greater than −4.00 log10M and a Log10GI50 (BT-549; Table IV (LC50, PG=−50)) greater than −4.00 log10M. For the same compound, the “Delta of Log10GI50 (Table IV)” value (60 cell line panel; Table IV (LC50)) was −4.00, the “Range of Log10GI50 (Table IV)” value (60 cell line panel; Table IV (LC50)) was 0.00 and the “Delta of Log10GI50” value (60 cell line panel) was −4.07. For the same compound, the “Delta of Log10TGI” value (60 cell line panel) was −4.00, the “Range of Log10GI50” value (60 cell line panel) was 0.73 and the “Range of Log10TGI” value (60 cell line panel) was 0.06.

From patent US20020055528A1, “Artemisinin analogs having antimalarial, antiproliferative, and antitumor activities and chemoselective methods of making the same” (priority 1999, published 2002)
